Assay results reported in US9957484B2, “Methods for promoting cell reprogramming” (Sanford-Burnham Medical Research Institute, priority 2011, dated 2018).
Blank lines part the entries; values can stand above or below the compound they belong to.

What was measured:
[1] = test system: MEFs during reprogramming; experiment: Alkaline phosphatase (AP)+ colony formation during reprogramming; format: cell-based, mouse; conditions: molecule applied during reprogramming
GSK3β = experiment: Western blotting of phospho- and total GSK3β; format: cell-based, mouse; conditions: 4F-infected MEFs
Procedure: 4F-infected MEFs were treated with different doses of B6 inhibitor starting at day 3 post-infection for 48 hrs before being harvested for western blotting analysis.
The experiment was the same as FIG. 5C. Actin served as the loading control.
4F-infected MEFs were treated with 1 μM each of Akt inhibitor (Akt X) and B6.
Membranes were blocked with 5% milk in TBST for at least 1 hr at room temp or overnight at 4° C.

[2] = test system: 4F-transduced Oct4-GFP MEFs; experiment: Kinase inhibitor treatment of 4F-transduced Oct4-GFP MEFs, Oct4-GFP+ colony count (reprogramming efficiency); format: cell-based, mouse; conditions: for reprogramming, Oct4-GFP+ colonies, dose/response: 0.5 μM, drug from day 3, colonies at day 13; for reprogramming, Oct4-GFP+ colonies: secondary screen; for iPSC generation in non-permissive conditions: 4F expression too low to reprogram vehicle-treated MEFs, GFP+ colonies at day 12-13; for iPSC generation when p53 is silenced by shRNA: 4F plus p53 shRNA, inhibitor from day 3, GFP+ colonies at day 12
Procedure: MEFs were cultured in DMEM (Invitrogen, 11995-065) with 10% FBS (Invitrogen) plus glutamine and NEAA. Only MEFs at passage of 0 to 4 were used for reprogramming. pMX-Oct4, Sox2, Klf4 and cMyc were purchased from Addgene. […] Viruses were harvested and combined 2 days later. For reprogramming, MEFs were seeded in 12-well plates and transduced with 4F virus the next day with 4 ug/ml Polybrene. One day later, the medium was changed to fresh MEF medium, and 3 days later it was changed to mES culture medium supplemented with LIF (Millipore, ESG1107). GFP+ colonies were picked at day 14 post-transduction, and expanded clones were cultured in DMEM with 15% FBS (Hyclone) plus LIF, thioglycerol, glutamine and NEAA. Irradiated CF1 MEFs served as feeder layers to culture mES cells and derived iPS clones.
All compounds are well-characterized protein kinase inhibitors. Compounds were diluted to 2 mM in 96-well plates. 4F-transduced cells were seeded into gelatin coated plates (4000 cells/well). Inhibitors were added every other day until day 13. Cells were then fixed with 4% paraformaldehyde for 20 min at room temperature and number of Oct4-GFP+ colonies was directly counted under a microscope. Cells were then stained with Vector red alkaline phosphatase substrate kit I™ (Vector laboratories, SK5100).
To define signaling mechanisms underlying reprogramming, a double-blind screen of 244 well-characterized cell-permeable protein kinase inhibitors was undertook to identify kinases that enhance or inhibit the process. Mouse embryonic fibroblasts from a transgenic line in which GFP expression is driven by the endogenous Oct4 promoter were chosen as the starting material for a reporter cell line of somatic cell reprogramming. Fully reprogrammed cells switch on endogenous Oct4 expression, making resultant iPS colonies GFP-positive and enabling quantification of reprogramming efficiency. To minimize well-to-well variation, MEFs were first transduced with 4F factors in bulk (FIG. 9A) and then reseeded at 3000 cells/well into gelatin-coated 96-well plates before inhibitor treatment. Starting at day 3 post-transduction, inhibitors were added at a final concentration of 2 μM and media were refreshed every other day with mES culture medium plus inhibitor. At day 13 post-transduction, plates were fixed in 4% paraformaldehyde and GFP-positive colonies were directly quantified microscopically.
Two columns of wells from each plate (columns 1 and 12) were treated with DMSO (vehicle) only and served as controls.

mES cells = experiment: mES cell self-renewal and differentiation in LIF+ and LIF− conditions; format: cell-based, mouse; conditions: 0.5 μM and 1 μM, 4 days
From the text: Cells were harvested for RNA extraction and RT-qPCR of indicated mES self-renewal genes.
LIF withdrawal in both B6-treated and DMSO control cells promoted mES cell differentiation, as indicated by loss of colonies, based on morphology and AP staining (data not shown).

Aurora A kinase = experiment: Western blotting of Aurora A kinase protein; format: cell-based, mouse; conditions: wild type and 4F-infected MEFs (B6 1 μM, 2 days); 4F-infected MEFs (MLN8237, 48 hrs)
Procedure: FIGS. 13A-13h are a series of graphical representations depicting Aurora A kinase inhibition by B6 promoting Akt mediated inactivation of GSK3β. FIG. 13A is a western blot showing B6 treatment increases aurora A kinase protein levels. Both 4F-infected (day 3) and mock MEFs were treated with 1 μM B6 for 2 days and cells were harvested for western blotting of Aurora A kinase. Actin served as loading control.
Cells were harvested 48 hrs after drug treatment for western blotting analysis of AurkA protein. Actin serves as loading control.
Western blotting: Total cell lysates were prepared by incubating cells in MPER buffer (PIERCE, 78503) on ice for 20 min, and then cleared by centrifugation at 13,000 rpm for 10 min. An equal volume of lysates was loaded onto 10% SDS-PAGE gels, and proteins were transferred to PVDF membranes (Bio-Rad, 1620177) using the semi-dry system (Bio-Rad). Membranes were blocked with 5% milk in TBST for at least 1 hr at room temp or overnight at 4° C. Antibodies used include: anti-mNanog (R&D, AF2729), anti-h/mSSEA1 (R&D, MAB2156), anti-Actin (Thermo, MS1295P0), anti-AFP (Abcam, ab7751), anti-Beta III tubulin (R&D systems, MAB1368), and anti-alpha actinin (Sigma, A7811), anti-mAurkA (Bethyl lab, A300-072A), anti-hAurkA (Bethyl lab, A300-071A), total-GSK3β (Cell signaling technology, 9315S), phospho-GSK3β (Cell Signaling Technology, 9323S).

4F-infected MEFs [3] = experiment: Cell cycle analysis, PI staining and flow cytometry; format: cell-based, mouse; conditions: for cell cycle progression: various concentrations, 48 hr
Procedure: FIG. 24A is a series of images of DNA analysis by flow cytometry. 4F-infected MEFs were treated with different concentrations of B6 at day 3 post-infection. Cells were harvested after 48 hr of drug treatment, subjected to PI staining and analyzed for DNA content by flow cytometry.
FIG. 24B is a series of images of DNA analysis by flow cytometry. […] The experimental procedure was as in FIG. 24A.
Cell cycle analysis: MEFs or 4F-infected MEFs were treated with inhibitors for two days and then harvested and trypsinized before fixing in 75% ethanol overnight. Cells were centrifuged at 1000 rpm for 5 min, washed once with PBS, and treated with PI staining solution for at least 30 min at room temperature before flow cytometry analysis. ˜20000 events per sample were collected per analysis and cell cycle data was modeled using ModFit™.

Pdk1, Src, Pten and p85α = experiment: RT-qPCR of genes upstream of Akt; format: cell-based, mouse; conditions: MEFs transduced with 4F for three days, then 1 μM for two days
Procedure: FIG. 22, is a graph plotting relative mRNA levels in MEFs. […] MEFs were first transduced with 4F for three days and then treated for another two days with DMSO or 1 μM B6. Total RNAs were harvested and analyzed for indicated factors, which reportedly function upstream of Akt.
(§1) mRNA quantitative PCR: Total RNAs were extracted using Trizol (Invitrogen). After extraction, 1 ug total RNA was used for RT using Superscript II™ (Invitrogen). Quantitative PCR was performed using a Roche LightCycler480™ II and the Sybr green mixture from Abgene (Ab-4166). Other primers were previously described (Takahashi et al. 2006 Cell 126:663-76).

Aurora A kinase mRNA = experiment: RT-qPCR of Aurora A kinase mRNA; format: cell-based, mouse; conditions: 4F-infected MEFs, 1 μM, 2 days
Procedure: MEFs were infected with 4F for 3 days and treated under mock conditions or with DMSO or 1 μM B6 for 2 days prior to RT-qPCR analysis of total RNA.
as §1

Cdk1/B = Cdk1/B (Homo sapiens, UniProt P06493); conditions: read-out: Potential Targets: Cdk1/B, IC50; cited from earlier work
Cdk3/E = Cdk3/E (Homo sapiens, UniProt Q00526); conditions: read-out: Potential Targets: Cdk3/E, IC50; cited from earlier work
Cdk7/H/MAT1 = Cdk7/H/MAT1 (Homo sapiens, UniProt P50613); conditions: read-out: Potential Targets: Cdk7/H/MAT1, IC50; cited from earlier work
Cdk5/p35 = Cdk5/p35 (Homo sapiens, UniProt Q00535); conditions: read-out: Potential Targets: Cdk5/p35, IC50; cited from earlier work
Cdk2/E = Cdk2/E (Homo sapiens, UniProt P24941); conditions: read-out: Potential Targets: Cdk2/E, IC50; cited from earlier work
4F-infected MEFs [4] = experiment: Cell proliferation assay (Celltiter 96 aqueous), 4F-infected MEFs; format: cell-based, mouse; conditions: 4F-transduced MEFs, 0.5 μM
Procedure: (§2) MEFs were treated with drugs at 2 μM and proliferation was assayed by using the Celltiter 96™ aqueous method (Promega). Y-axis represents the absorbance at 490 nm to detect formazan, which is converted from MTS tetrazolium by living cells. A higher reading indicates increased cell number. […] Oct4-GFP+ colonies were quantified at day 13.
(§3) FIG. 16A is a graph plotting relative cell viability. 4F-infected MEFs were seeded in 96-well plates and 0.5 μM of three inhibitors was added at day 3 after transduction (Day 0 in dataset). Proliferation of cells was analyzed every other day using the Celltiter 96™ aqueous method (Promega). FIG. 16B is a graph plotting relative cell viability. […] The experimental procedure is the same as in FIG. 16A.
(§4) Cell proliferation assay: 3000 MEFs were seeded in each well in 96-well plates and transduced with 4F virus for three days. Cells were then treated with inhibitors at 0.5 μM and harvested every other day. Cells were incubated with mES medium containing Celltiter 96 Aqueous™ one solution (Promega, G3580) for 1 hr in tissue culture incubator. Absorbance at 490 nm was then measured for each well using a plate reader, and data was used to generate relative proliferation curves using the signal from day 3 post-transduction as a reference.

uninfected MEFs = experiment: Cell proliferation assay (Celltiter 96 aqueous), uninfected MEFs; format: cell-based, mouse; conditions: 0.5 μM
Procedure: as §2, §3, §4

Nanog, Tet1 and Eras = experiment: RT-qPCR of mES-specific genes in 4F-transduced MEFs; format: cell-based, mouse; conditions: day 14 post transduction
Procedure: Data is derived from analysis of three independent wells. FIG. 23B is a histogram of relative mRNA level. […] Cells were harvested at day 14 post 4F transduction. […] Shown are data derived from three independent wells.
as §1

[5] = test system: OSKM-transduced Oct4-EGFP MEFs; experiment: OSKM-induced reprogramming with small molecules, GFP+ colonies; format: cell-based, mouse; conditions: treated four days after OSKM transduction for at least 10 days, vs DMSO
Procedure: All 17 molecules are tested by examining alkaline phosphatase (AP)+ colony formation during reprogramming while these molecules were applied. […] To evaluate their effect on induction of mature GFP+ iPS cells, OSKM-transduced Oct4-EGFP MEFs are treated four days after transduction with each of these factors separately.
Oct4-EGFP MEFs are transduced with OSKM and four days later treated with individual small molecules for at least 10 days. GFP+ colonies are identified. Error bars represent standard deviations of three independent experiments. *p value<0.05; **p value<0.005.

[6] = 12-well plates, 2 μM, drug from day 3, colonies at day 13, vs DMSO

Chain of Cdk7/H/MAT1 (P50613 whole entry, species assumed): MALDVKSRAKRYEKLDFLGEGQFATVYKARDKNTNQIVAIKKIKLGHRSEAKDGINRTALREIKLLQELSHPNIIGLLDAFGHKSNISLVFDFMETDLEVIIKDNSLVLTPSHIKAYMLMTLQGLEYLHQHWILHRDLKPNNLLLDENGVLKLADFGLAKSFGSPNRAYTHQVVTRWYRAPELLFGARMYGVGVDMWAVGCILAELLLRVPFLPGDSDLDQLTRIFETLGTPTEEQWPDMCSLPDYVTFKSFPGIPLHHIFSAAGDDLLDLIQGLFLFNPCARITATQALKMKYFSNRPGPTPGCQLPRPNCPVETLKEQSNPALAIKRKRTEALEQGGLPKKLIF
Chain of Cdk7/H/MAT1 (P51946 whole entry partner, species assumed): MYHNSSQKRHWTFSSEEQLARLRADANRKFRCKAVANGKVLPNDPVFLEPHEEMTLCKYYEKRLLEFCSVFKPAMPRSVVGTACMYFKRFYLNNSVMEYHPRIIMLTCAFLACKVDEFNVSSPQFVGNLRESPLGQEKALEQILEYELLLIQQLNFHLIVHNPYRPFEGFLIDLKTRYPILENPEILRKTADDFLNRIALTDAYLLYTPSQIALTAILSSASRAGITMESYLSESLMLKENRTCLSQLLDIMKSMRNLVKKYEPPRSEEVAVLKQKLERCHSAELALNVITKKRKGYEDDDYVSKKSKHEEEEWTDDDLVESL
Chain of Cdk7/H/MAT1 (P51948 whole entry partner, species assumed): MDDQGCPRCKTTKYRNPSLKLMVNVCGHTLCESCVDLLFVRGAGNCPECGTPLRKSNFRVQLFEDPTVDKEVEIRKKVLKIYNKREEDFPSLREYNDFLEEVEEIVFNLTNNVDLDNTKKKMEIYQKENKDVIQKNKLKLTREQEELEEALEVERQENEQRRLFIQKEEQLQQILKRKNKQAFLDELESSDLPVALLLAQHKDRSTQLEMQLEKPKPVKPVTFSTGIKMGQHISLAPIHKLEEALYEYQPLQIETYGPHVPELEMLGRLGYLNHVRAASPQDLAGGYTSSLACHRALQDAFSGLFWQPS
Chain of Cdk5/p35 (Q00535 whole entry, species assumed): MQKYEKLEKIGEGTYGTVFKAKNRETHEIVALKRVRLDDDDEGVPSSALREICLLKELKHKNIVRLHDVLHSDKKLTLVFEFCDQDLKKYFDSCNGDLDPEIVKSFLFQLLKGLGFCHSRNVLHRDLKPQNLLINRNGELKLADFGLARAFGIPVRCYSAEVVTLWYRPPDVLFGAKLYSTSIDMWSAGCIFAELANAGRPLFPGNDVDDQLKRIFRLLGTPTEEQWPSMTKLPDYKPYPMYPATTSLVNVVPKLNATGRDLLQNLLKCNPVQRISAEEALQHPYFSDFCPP
Chain of Cdk5/p35 (Q15078 whole entry partner, species assumed): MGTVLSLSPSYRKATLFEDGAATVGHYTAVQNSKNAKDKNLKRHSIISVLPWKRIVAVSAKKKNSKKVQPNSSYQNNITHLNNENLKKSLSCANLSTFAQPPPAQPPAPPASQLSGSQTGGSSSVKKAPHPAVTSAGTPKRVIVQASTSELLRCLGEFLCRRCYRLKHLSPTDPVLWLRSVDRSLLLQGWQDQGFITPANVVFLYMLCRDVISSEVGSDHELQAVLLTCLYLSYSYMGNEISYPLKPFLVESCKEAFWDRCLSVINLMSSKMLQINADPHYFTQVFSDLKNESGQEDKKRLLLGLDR
Chain of Cdk1/B (P06493 whole entry, species assumed): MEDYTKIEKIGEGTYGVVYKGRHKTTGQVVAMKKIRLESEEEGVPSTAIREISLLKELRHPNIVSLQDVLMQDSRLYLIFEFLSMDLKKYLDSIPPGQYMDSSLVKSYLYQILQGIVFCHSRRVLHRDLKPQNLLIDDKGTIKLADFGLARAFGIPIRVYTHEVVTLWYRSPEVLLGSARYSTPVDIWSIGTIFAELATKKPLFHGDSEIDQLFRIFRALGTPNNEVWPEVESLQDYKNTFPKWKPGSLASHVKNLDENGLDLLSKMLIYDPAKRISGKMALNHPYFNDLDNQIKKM
Chain of Cdk1/B (P14635 whole entry partner, species assumed): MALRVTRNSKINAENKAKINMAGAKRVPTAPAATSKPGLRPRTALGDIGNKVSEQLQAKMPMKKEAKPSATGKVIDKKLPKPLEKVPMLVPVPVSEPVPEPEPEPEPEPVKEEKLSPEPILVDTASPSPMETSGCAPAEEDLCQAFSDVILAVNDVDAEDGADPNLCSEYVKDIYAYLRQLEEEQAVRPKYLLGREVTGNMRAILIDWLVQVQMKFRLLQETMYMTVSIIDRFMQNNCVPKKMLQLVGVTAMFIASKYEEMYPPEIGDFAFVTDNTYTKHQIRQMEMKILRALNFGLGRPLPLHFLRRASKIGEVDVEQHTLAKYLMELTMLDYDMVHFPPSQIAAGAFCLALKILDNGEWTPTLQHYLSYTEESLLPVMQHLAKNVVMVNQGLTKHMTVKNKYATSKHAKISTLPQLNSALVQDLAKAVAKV

Compound: 4-hydroxytamoxifen
- effect on AP+ colony formation [1]: not showing adverse effect on AP+ colony formation

- reprogramming ([2]; 1 μM, triplicate wells): compromises reprogramming
Compound: CCN(CC)CCCCN1c2ccccc2Oc2ccc(Cl)cc21 [Akt X]
- GSK3β phosphorylation (GSK3β; 1 μM each of Akt X and B6): diminished

- AurkA mRNA levels (Aurora A kinase mRNA): not significantly altered
- reprogramming, Oct4-GFP+ colonies, dose/response [2]: potent enhancers
Compound: O=C(Nc1cccc(Nc2nccc(Nc3cccc(C(F)(F)F)c3)n2)c1)C1CC1 [BIM-0086660]
- Oct4 expression in mES cells (mES cells): very small increase
- mES self-renewal or differentiation (mES cells; LIF+ and LIF−): a significant effect on either mES self-renewal (in the presence of LIF) or differentiation (following LIF withdrawal) was not seen
- GSK3β total protein levels (GSK3β; 48 hrs): unchanged
- phospho-GSK3β (GSK3β; different doses from day 3 post-infection for 48 hrs): significant increase in phospho-GSK3β
- AurkA protein levels (Aurora A kinase): increased AurkA protein levels relative to untreated cells
- cell cycle progression (4F-infected MEFs [3]): little change in cell cycle progression
- expression levels of genes upstream of Akt (Pdk1, Src, Pten, p85α) (Pdk1, Src, Pten and p85α): significant changes were not observed
- reprogramming, Oct4-GFP+ colonies ([2]; 1 μM, vs DMSO): enhanced reprogramming more robustly at 1 μM than at 2 μM

Compound: Cc1cccc(-c2[nH]c(C(C)(C)C)nc2-c2ccc3c(c2)OCO3)n1 [BIM-0086716]
- reprogramming, Oct4-GFP+ colonies [2, 6]: consistently and significantly enhanced reprogramming

Compound: CC(C)c1nn(-c2c(Cl)cccc2Cl)c2nc(Cc3ccc(OCCO)cc3)[nH]c(=O)c12 [BIM-0086744]
- IC50 (Cdk1/B): 48 nM
- IC50 (Cdk3/E): 10 nM
- IC50 (Cdk7/H/MAT1): 9 nM
- IC50 (Cdk5/p35): 71 nM
- IC50 (Cdk2/E): 9 nM

- reprogramming, Oct4-GFP+ colonies, dose/response [2]: potent enhancers
Compound: O=[N+]([O-])c1ccc(CNc2nc(NCc3cccc(C(F)(F)F)c3)nc3nc[nH]c23)cc1 [BIM-0207164]
- proliferation (4F-infected MEFs [4]): did not significantly promote proliferation
- proliferation (uninfected MEFs): did not significantly promote proliferation
- iPSC generation in non-permissive conditions [2]: enhanced iPSC generation even in non-permissive conditions
- iPSC generation when p53 is silenced by shRNA [2]: equivalent in inhibitor-treated and -untreated conditions
- reprogramming, Oct4-GFP+ colonies [2, 6]: consistently and significantly enhanced reprogramming

Compound: O=S(=O)(c1c(O)c(Cl)cc(Cl)c1Cl)c1c(O)c(Cl)cc(Cl)c1Cl [BIM-0207174]
- proliferation (4F-infected MEFs [4]): did not significantly promote proliferation
- proliferation (uninfected MEFs): did not significantly promote proliferation
- reprogramming, Oct4-GFP+ colonies, dose/response [2]: potent enhancers
- iPSC generation in non-permissive conditions [2]: enhanced iPSC generation even in non-permissive conditions
- iPSC generation when p53 is silenced by shRNA [2]: equivalent in inhibitor-treated and -untreated conditions
- reprogramming, Oct4-GFP+ colonies [2, 6]: consistently and significantly enhanced reprogramming

Compound: COC(=O)[C@H]1[C@H]2C[C@H]3c4[nH]c5ccccc5c4CCN3C[C@@H]2CC[C@@H]1O.Cl [Corynanthine, Corynanthine hydrochloride]
- effect on AP+ colony formation [1]: not showing adverse effect on AP+ colony formation

Compound: COc1cc(Nc2ncc3c(n2)-c2ccc(Cl)cc2C(c2c(F)cccc2OC)=NC3)ccc1C(=O)O [MLN8237]
- AurkA protein levels (Aurora A kinase): Increased AurkA protein levels
- cell cycle (4F-infected MEFs [3]; 10 nM): did not alter the cell cycle
- number of cells in G2 (4F-infected MEFs [3]; 100 nM): increased the number of cells in G2
- cell cycle progression (4F-infected MEFs [3]): little change in cell cycle progression
- mES-specific gene expression (Nanog, Tet1 and Eras): increases in mES-specific gene expression
- enhancement of reprogramming ([2]; 10 nM, from day 3 for 10 days): approximately 4 fold
- number of GFP+ colonies ([2]; 100 nM): significant increase in the number of GFP+ colonies

Compound: O=C(NCCN1CCOCC1)c1ccc(Cl)cc1 [Moclobemide]
- effect on AP+ colony formation [1]: not showing adverse effect on AP+ colony formation

Compound: COc1ccc2cc(CCC(C)=O)ccc2c1 [Nabumetone]
- increase in number of reprogrammed colonies [5]: at least 2.8 fold
- effect on AP+ colony formation [1]: not showing adverse effect on AP+ colony formation
